From patent US20120302573A1, “METHODS OF INHIBITING PRO MATRIX METALLOPROTEINASE ACTIVATION” (priority 2011, published 2012)
Where a name gives a salt, the structure may show the parent alone.

Columns and labels:
[1] = target: full-length proMMP9(1-707) activation by catalytic MMP3 (Homo sapiens, UniProt P14780, R574P); test: ProMMP9/MMP3 DQ Gelatin Activation Assay;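 also: readout is fluorescence of quenched fluorescein gelatin cut by activated MMP9, 30 min activation at 37 °C, inhibition relative to DMSO-only controls with EDTA as blank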; format: biochemical; design: made in house; host or cells: COS-1 (proMMP9); E. coli (MMP3); conditions: proMMP9 from COS-1 cells; read-out: ProMMP9/MMP3 DQ gel, IC50
Protocol: Compounds were assessed for inhibition of proMMP9 activation by catalytic MMP3 using a quenched fluorescein gelatin substrate (DQ gelatin, Invitrogen D12054) that fluoresces upon cleavage by activated MMP9. The assay buffer employed was 50 mM Hepes, pH 7.5, 10 mM CaCl2, 0.05% Brij-35. DMSO was included at a final concentration of 0.2%, arising from the test compound addition. […] Test compounds in DMSO were diluted 250-fold in assay buffer at 4× the final concentration. The reaction volume was 12 μL, and all reactions were conducted in triplicate. […] The plate was sealed and incubated for 30 min at 37° C. […] Immediately following the 30 min incubation, 4 μL of 40 μg/ml DQ gelatin substrate was added (freshly diluted in assay buffer), and incubated for 10 min at room temperature. […] Reactivity of residual MMP3 towards DQ gelatin was minimal under these conditions. Percent inhibition of test compounds were determined from suitable positive (DMSO only in assay buffer) and negative (EDTA added prior to reaction initiation) controls. Plots of % inhibition vs. test compound concentration were fit to a four-parameter logistics equation (GraphPad Prism® software) for determination of IC50.

[2] = target: T1, proMMP9(67-444;ΔFnII) (SEQ ID NO:5) (Homo sapiens, UniProt P14780, DEL216-390); test: ThermoFluor binding assay with proMMP9(67-444;ΔFnII)
T1 construct: amino acid pairs including: 29-215/391-444, 67-215/391-444, and 20-215/391-445, respectively; start methionine (N); made in house; host or cells: E. coli BL21(DE3) RIL
T1 sequence (P14780 with tags, fused parts or gaps DEL216-390): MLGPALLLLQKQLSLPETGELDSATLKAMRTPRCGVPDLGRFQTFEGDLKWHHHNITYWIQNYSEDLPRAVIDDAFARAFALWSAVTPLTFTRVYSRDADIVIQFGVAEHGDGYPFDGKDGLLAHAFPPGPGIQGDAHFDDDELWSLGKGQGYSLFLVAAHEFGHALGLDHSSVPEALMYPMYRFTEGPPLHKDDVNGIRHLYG
Protocol: (§1) The experiments were carried out using instruments available from Johnson & Johnson Pharmaceutical Research & Development, LLC. TF dye used in all experiments was […] (1,8-ANS) (Invitrogen: A-47).
(§2) Columns 12 and 24 were used as DMSO reference and contained no compound. […] Following compound dispense, protein and dye solutions were added to achieve the final assay volume of 3 μL.
(§3) Assay plates were robotically loaded onto a thermostatically controlled PCR-type thermal block and then heated from 40 to 90° C. at a ramp-rate of 1° C./min for all experiments. Fluorescence was measured by continuous illumination with UV light (Hamamatsu LC6) supplied via fiber optics and filtered through a band-pass filter (380-400 nm; >6 OD cutoff). Fluorescence emission of the entire 384-well plate was detected by measuring light intensity using a CCD camera (Sensys, Roper Scientific) filtered to detect 500±25 nm, resulting in simultaneous and independent readings of all 384 wells.
(§4) Thermodynamic parameters necessary for fitting compound binding for each proMMP were estimated by differential scanning calorimetry (DSC) and from ThermoFluor® data. The heat capacity of unfolding for each protein was estimated from the molecular weight and from ThermoFluor® dosing data.
The protein sample preparations had to include a desalting buffer exchange step via a PD-10 gravity column (GE Healthcare).

[3] = target: T2, proMMP9(20-445;ΔFnII) (SEQ ID NO:6) (Homo sapiens, UniProt P14780, DEL216-390); test: ThermoFluor binding assay with proMMP9(20-445;ΔFnII)
T2 construct: amino acid pairs including: 29-215/391-444, 67-215/391-444, and 20-215/391-445, respectively; start methionine (N); made in house; host or cells: E. coli BL21(DE3) RIL
T2 sequence (P14780 with tags, fused parts or gaps DEL216-390): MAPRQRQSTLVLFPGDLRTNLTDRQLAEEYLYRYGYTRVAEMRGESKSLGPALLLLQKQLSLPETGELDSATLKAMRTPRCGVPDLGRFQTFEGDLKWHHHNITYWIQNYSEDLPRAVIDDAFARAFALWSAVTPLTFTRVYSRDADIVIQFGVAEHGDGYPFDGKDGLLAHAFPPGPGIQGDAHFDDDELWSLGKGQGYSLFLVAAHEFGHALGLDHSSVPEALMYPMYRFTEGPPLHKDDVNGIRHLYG
Protocol: as §1, §2, §3, §4
The protein sample preparations included a desalting buffer exchange step via a PD-10 gravity column (GE Healthcare).

Chain of full-length proMMP9(1-707) activation by catalytic MMP3 (P14780 20-707 R574P): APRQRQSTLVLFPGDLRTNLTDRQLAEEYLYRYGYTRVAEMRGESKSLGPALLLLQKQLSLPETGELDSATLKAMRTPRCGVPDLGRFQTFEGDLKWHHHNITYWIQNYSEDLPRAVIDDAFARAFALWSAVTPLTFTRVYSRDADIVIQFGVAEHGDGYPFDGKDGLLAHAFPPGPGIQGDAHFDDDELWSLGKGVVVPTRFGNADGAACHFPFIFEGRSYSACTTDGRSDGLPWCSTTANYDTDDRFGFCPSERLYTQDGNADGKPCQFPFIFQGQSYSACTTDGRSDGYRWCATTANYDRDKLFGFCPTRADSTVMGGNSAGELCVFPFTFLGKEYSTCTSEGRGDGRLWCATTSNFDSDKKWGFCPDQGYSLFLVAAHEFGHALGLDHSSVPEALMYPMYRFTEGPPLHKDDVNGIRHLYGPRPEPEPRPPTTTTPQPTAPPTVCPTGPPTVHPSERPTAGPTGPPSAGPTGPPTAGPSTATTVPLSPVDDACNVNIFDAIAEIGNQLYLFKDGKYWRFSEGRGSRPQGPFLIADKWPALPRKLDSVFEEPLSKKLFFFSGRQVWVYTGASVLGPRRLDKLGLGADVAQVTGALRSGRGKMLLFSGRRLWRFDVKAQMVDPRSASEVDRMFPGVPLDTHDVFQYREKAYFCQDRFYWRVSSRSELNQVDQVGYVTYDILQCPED

Row | Molecule | IC50 [1] | Kd [2] | Kd [3]
1 | c1cncc(-c2csc(Nc3ccccc3OCc3cccs3)n2)c1 [Example 24, (4-Pyridin-3-yl-thiazol-2-yl)-[2-(thiophen-2-ylmethoxy)-phenyl]-amine.TFA] | > 20 µM | > 38 µM | 0.37 µM
2 | CNc1nc(C)c(-c2csc(Nc3ccccc3OC)n2)s1 [Example 35, N^2-(2-Methoxy-phenyl)-4′,N^2′-dimethyl-[4,5′]bithiazolyl-2,2′-diamine] | 7 µM | 3.92 µM | 10.3 µM
3 | COc1ccc(Nc2nc(-c3sc(NC(C)=O)nc3C)cs2)c(OC)c1 [Example 23, N-[2-(2,4-Dimethoxy-phenylamino)-4′-methyl-[4,5′]bithiazolyl-2′-yl]-acetamide.TFA] | 26.2 µM | 5.53 µM | > 35 µM
4 | CC(=O)Nc1nc(C)c(-c2csc(Nc3ccccc3OC(F)(F)F)n2)s1 [Example 31, N-[4′-Methyl-2-(2-trifluoromethoxy-phenylamino)-[4,5′]bithiazolyl-2′-yl]-acetamide.HCl] | 3.3 µM | 0.645 µM | 3.34 µM
5 | COc1ccccc1Nc1nc(-c2sc(NC(=O)c3ccccc3)nc2C)cs1 [Example 50, N-[2-(2-Methoxy-phenylamino)-4′-methyl-[4,5′]bithiazolyl-2′-yl]-benzamide] | 21.2 µM | 4.05 µM | > 14 µM
6 | CC(=O)Nc1nc(C)c(-c2csc(Nc3ccccc3C)n2)s1 [Example 63, N-(4′-Methyl-2-o-tolylamino-[4,5′]bithiazolyl-2′-yl)-acetamide] | 28.2 µM | 5.13 µM | 19.6 µM
7 | COc1ccccc1Nc1nc(C2(C)CC3(CC(C)(C)OC3=O)C(=O)O2)cs1 (stereo not shown) [Example 69, 3-[2-(2-Methoxy-phenylamino)-thiazol-4-yl]-3,8,8-trimethyl-2,7-dioxa-spiro[4.4]nonane-1,6-dione] | 11.2 µM | > 15 µM | > 15 µM
8 | CCNc1nc(C)c(-c2csc(Nc3ccccc3OC)n2)s1 [Example 38] | 9.6 µM | > 8.3 µM | > 8.3 µM
9 | COc1ccc(Nc2nc(-c3sc(N)nc3C)cs2)c(OC)c1 [Example 48, N^2-(2,4-Dimethoxy-phenyl)-4′-methyl-[4,5′]bithiazolyl-2,2′-diamine] |  | 4.73 µM | 17.5 µM
10 | Cc1nc(C)c(-c2csc(Nc3cccc(C(N)=O)c3)n2)s1 [Example 9, 3-(2′,4′-Dimethyl-[4,5′]bithiazolyl-2-ylamino)-benzamide] |  | > 81 µM | 19 µM
11 | COc1ccccc1Nc1nc(-c2sc(N(C)C(C)=O)nc2C)cs1 [Example 36, N-[2-(2-Methoxy-phenylamino)-4′-methyl-[4,5′]bithiazolyl-2′-yl]-N-methyl-acetamide.TFA] | 1.7 µM | > 11 µM | > 11 µM
12 | CSc1ccccc1Nc1nc(-c2sc(NC(C)=O)nc2C)cs1 [Example 33, N-[4′-Methyl-2-(2-methylsulfanyl-phenylamino)-[4,5′]bithiazolyl-2′-yl]-acetamide.HCl] | 2.9 µM | 0.695 µM | 3.75 µM
13 | COc1ccccc1Nc1nc(C2(C)CC3(CC(C)OC3=O)C(=O)O2)cs1 (stereo not shown) [Example 49, 3-[2-(2-Methoxy-phenylamino)-thiazol-4-yl]-3,8-dimethyl-2,7-dioxa-spiro[4.4]nonane-1,6-dione] | 5.7 µM | 8.7 µM | > 17 µM
14 | CCOc1ccccc1Nc1nc(-c2sc(NC(C)=O)nc2C)cs1 [Example 66, N-[2-(2-Ethoxy-phenylamino)-4′-methyl-[4,5′]bithiazolyl-2′-yl]-acetamide] | 1.9 µM | > 6.1 µM | > 6.1 µM
15 | CC(=O)Nc1nc(C)c(-c2csc(Nc3ccccc3OCC3CC3)n2)s1 [Example 19, N-[2-(2-Cyclopropylmethoxy-phenylamino)-4′-methyl-[4,5′]bithiazolyl-2′-yl]-acetamide.TFA] |  | 3.86 µM | > 52 µM
16 | COc1ccccc1Nc1nc(-c2cnccc2C)cs1 [Example 29, (2-Methoxy-phenyl)-[4-(4-methyl-pyridin-3-yl)-thiazol-2-yl]-amine.TFA] | 14.4 µM |  | 
17 | COc1ccc(OC)c(Nc2nc(-c3cccnc3)cs2)c1 [Example 54, (2,5-Dimethoxy-phenyl)-(4-pyridin-3-yl-thiazol-2-yl)-amine] | 16.1 µM | 17.9 µM | > 65 µM

The remaining lines, values ahead:

Row | IC50 [1] | Kd [2] | Kd [3] | Molecule
18 | > 20 µM | 16.3 µM | > 18 µM | CC(=O)Nc1nc(C)c(-c2csc(Nc3ccccc3F)n2)s1 [Example 40, N-[2-(2-Fluoro-phenylamino)-4′-methyl-[4,5′]bithiazolyl-2′-yl]acetamide.TFA]
19 | 6.9 µM | 6.56 µM | 11.7 µM | CCOc1ccccc1Nc1nc(-c2cnc3ncccn23)cs1 [Example 71, (2-Ethoxy-phenyl)-(4-imidazo[1,2-a]pyrimidin-3-yl-thiazol-2-yl)-amine]
20 | 3.1 µM | > 58 µM | 6.53 µM | (5-Chloro-2-methoxy-phenyl)-(4-imidazo[1,2-a]pyrazin-3-yl-thiazol-2-yl)-amine [Example 72]
21 | > 20 µM | 16.3 µM | 12.5 µM | CCCOc1ccccc1Nc1nc(-c2cccnc2)cs1 [Example 25, (2-Propoxy-phenyl)-(4-pyridin-3-yl-thiazol-2-yl)-amine]
22 | > 20 µM | 14.6 µM | > 70 µM | COc1ccc(Cl)cc1Nc1nc(-c2cccnc2)cs1 [Example 56, (5-Chloro-2-methoxy-phenyl)-(4-pyridin-3-yl-thiazol-2-yl)-amine]
23 | 10.1 µM | > 15 µM | > 16 µM | COc1ccc(OC)c(Nc2nc(-c3c(C)nc4ccccn34)cs2)c1 [Example 51, (2,5-Dimethoxy-phenyl)-[4-(2-methyl-imidazo[1,2-a]pyridin-3-yl)-thiazol-2-yl]-amine]
24 | > 20 µM | 9.06 µM | > 9.2 µM | CC(=O)Nc1nc(C)c(-c2csc(Nc3ccccc3C(F)(F)F)n2)s1 [Example 32, N-[4′-Methyl-2-(2-trifluoromethyl-phenylamino)-[4,5′]bithiazolyl-2′-yl]-acetamide.TFA]
25 | 17.1 µM | 2.49 µM | 6.35 µM | CC(=O)Nc1nc(C)c(-c2csc(Nc3ccccc3Cl)n2)s1 [Example 39, N-[2-(2-Chloro-phenylamino)-4′-methyl-[4,5′]bithiazolyl-2′-yl]-acetamide.HCl]
